Measurements from paper PMC4766439, “Discovery of novel PDE9 inhibitors capable of inhibiting Aβ aggregation as potential candidates for the treatment of Alzheimer’s disease” (Scientific Reports, 2016).

Key:
[1] = Cu-ascorbate redox system (CCA fluorescence); details: [Cu^2+] = 5 μM, [16] = 15 μM, ascorbate 150 μM, CCA 50 μM, PBS pH 7.4
Description: The experiments were performed as reported previously. […]. Then, ascorbate (150 μM) was added to the solution, and the fluorescence was recorded every 20 s (λexcitation = 395 nm, λemission = 450 nm). Each experiment was performed in triplicate. All test solutions contained 1 μM desferryl and 0.1% methanol.

Aβ1-42 fibrils = molecular target: T1, Aβ1-42 fibrils (Homo sapiens, UniProt P05067); test: ThT assay, disaggregation of Cu^2+-induced Aβ1-42 fibrils; type: biochemical; details: [Aβ1-42] = 25 μM, compound 50 μM, [Cu^2+] = 25 μM, additional 24 h
T1 construct: purchased Sigma
T1 sequence (P05067 672-713 limits assumed): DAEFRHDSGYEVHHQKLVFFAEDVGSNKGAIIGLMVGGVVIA
Description: For assaying the disaggregation of the copper (II)-induced Aβ1-42 fibrils, the Aβ1-42 stock solution was first diluted in HEPES buffer ([…], pH 6.6). The mixture of the peptide (10 μL, 25 μM final concentration) and copper (II) (10 μL, 25 μM final concentration) was then incubated at 37 °C for 24 h. Then, the test compound (10 μL, 50 μM final concentration) was added and incubated at 37 °C for an additional 24 h. Thereafter, 30 μL of the sample was diluted to a final volume of 200 μL with 50 mM glycine-NaOH buffer (pH 8.0) containing thioflavin-T (5 μM) in the dark. The detection method used was the same as that described above.

PDE3A (679–1087) = molecular target: T2, PDE3A (679–1087) (Homo sapiens, UniProt Q14432); test: PDE activity assay, PDE3A catalytic domain; type: biochemical
T2 construct: PDE3A (679–1087)
T2 sequence (Q14432 679-1087): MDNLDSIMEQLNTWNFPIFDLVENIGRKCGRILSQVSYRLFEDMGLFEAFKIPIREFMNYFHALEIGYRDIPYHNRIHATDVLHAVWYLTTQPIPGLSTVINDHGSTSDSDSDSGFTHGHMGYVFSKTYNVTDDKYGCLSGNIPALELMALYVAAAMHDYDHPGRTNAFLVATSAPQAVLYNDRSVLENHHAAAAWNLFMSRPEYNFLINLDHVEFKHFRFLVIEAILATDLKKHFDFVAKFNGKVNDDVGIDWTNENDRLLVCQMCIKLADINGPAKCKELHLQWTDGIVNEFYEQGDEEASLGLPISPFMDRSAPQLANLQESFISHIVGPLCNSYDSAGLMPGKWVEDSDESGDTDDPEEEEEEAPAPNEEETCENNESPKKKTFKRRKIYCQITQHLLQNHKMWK
Description: (§1) The enzymatic activities of the catalytic domains of PDE9 and other PDEs were measured by using cGMP or cAMP as substrates. The assay buffer contained 20–50 mM Tris–HCl (pH 7.5–8.0), 10 mM MgCl2 or 4 mM MnCl2, 1 mM DTT, and 10–20 nM ^3H-cGMP or ^3H-cAMP (20000–30000 cpm/assay, GE Healthcare). The reaction was performed at room temperature for 15 min and then terminated by the addition of 0.2 M ZnSO4. The addition of 0.25 M BaSO4 precipitated the generated ^3H-GMP, whereas the unreacted ^3H-cGMP remained in solution. The radioactivity in the supernatant was measured in 2.5 mL with an Ultim Gold liquid scintillation counter. […] The IC50 values were calculated by nonlinear regression method by using GraphPad Prism 5.0 Software.

Aβ1-42 = molecular target: T3, Aβ1-42 (Homo sapiens, UniProt P05067); test: Transmission electron microscopy (TEM) assay of Aβ1-42; type: biochemical; details: [Aβ1-42] = 25 μM, compound 50 μM, [Cu^2+] = 25 μM, 37 °C, 24 h
T3 construct: purchased Sigma
T3 sequence (P05067 672-713 limits assumed): as the sequence (P05067 672-713 limits assumed) above
Description: The assays were performed as reported previously. For the TEM assay of copper (II)-induced Aβ1-42 aggregation and the disaggregation of the fibrils, the samples were pretreated as described for the ThT assay. Samples (10 μL) were placed on a carbon-coated copper/rhodium grid for 2 min. Then, each grid was stained with uranyl acetate (1%, 5 μL) for 2 min. After the excess staining solution was drained off, the specimen was transferred for imaging by a transmission electron microscope (JEOL JEM-1400).

SH-SY5Y cells [2] = test: Intracellular antioxidant activity (DCFH-DA, t-BuOOH); type: cell-based, human; details: t-BuOOH-induced; 5 μM of 16 vs 10 μM of Trolox
Description: Cell culture was performed as reported previously. The human neuron-like cell line SH-SY5Y was obtained from the Institute of Biochemistry and Cell Biology, Shanghai Institute for Biological Sciences (Shanghai, China). The cells were cultured at 37 °C in a humidified atmosphere of 5% CO2 in Dulbecco’s modified Eagle’s medium (DMEM, GIBCO) supplemented with 10% fetal calf serum (FCS, GIBCO), 1 mM glutamine, 100 IU/mL penicillin, and 100 μg/mL streptomycin.
The antioxidant activity was determined as reported previously. The SH-SY5Y cells were seeded at a density of 1 × 10^4 cells/well in a 96-well plate. After 24 h, the culture medium was replaced with medium containing tested compounds, and the cells were cultured for an additional 24 h. Then, the cells were washed with PBS and incubated with 5 μM DCFH-DA (diluted by PBS) at 37 °C for 30 min. […] Then, the fluorescence of the cells in each well was measured (λexcitation = 485 nm, λemission = 535 nm) with a multifunctional microplate reader (Flex Station 3). The antioxidant activity was expressed as a percentage relative to that of the control cells and calculated using the formula (Ft – Fnt)/(Ft’ – Fnt) ×100, where Ft is the fluorescence value of the cells treated with the tested compound, Ft’ is the fluorescence value of the cells not treated with the tested compound, and Fnt is the fluorescence value of the cells treated with t-BuOOH.

SH-SY5Y cells [3] = test: MTT cytotoxicity assay; type: cell-based, human; details: below the 10 μM concentration, 48 h
PDE1B2 (10–487) = molecular target: T4, PDE1B2 (10–487) (Homo sapiens, UniProt Q01064); test: PDE activity assay, PDE1B2 catalytic domain; type: biochemical
T4 construct: PDE1B2 (10–487)
T4 sequence (Q01064 10-487 isoform Q01064-2): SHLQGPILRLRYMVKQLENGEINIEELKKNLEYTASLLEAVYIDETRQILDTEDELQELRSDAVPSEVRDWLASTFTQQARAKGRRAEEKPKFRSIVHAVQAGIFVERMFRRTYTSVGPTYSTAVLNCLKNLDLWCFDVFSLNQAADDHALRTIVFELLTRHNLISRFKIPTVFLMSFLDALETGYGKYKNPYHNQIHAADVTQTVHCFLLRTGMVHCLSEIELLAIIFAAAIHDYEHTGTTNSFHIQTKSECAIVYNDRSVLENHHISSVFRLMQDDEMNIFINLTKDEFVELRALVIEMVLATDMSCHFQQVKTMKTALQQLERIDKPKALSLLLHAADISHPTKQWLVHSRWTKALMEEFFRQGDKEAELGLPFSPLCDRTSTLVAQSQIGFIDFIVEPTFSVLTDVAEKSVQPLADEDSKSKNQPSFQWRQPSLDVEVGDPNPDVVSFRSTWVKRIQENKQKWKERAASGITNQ
Description: as §1

PDE5A1 (535–860) = PDE5A1 (535–860) (Homo sapiens, UniProt O76074); test: PDE activity assay, PDE5A1 catalytic domain; type: biochemical
Description: as §1

PDE2A3 (580–941) = molecular target: T5, PDE2A3 (580–941) (Homo sapiens, UniProt O00408); test: PDE activity assay, PDE2A3 catalytic domain; type: biochemical
T5 construct: PDE2A3 (580–941)
T5 sequence (O00408 580-941): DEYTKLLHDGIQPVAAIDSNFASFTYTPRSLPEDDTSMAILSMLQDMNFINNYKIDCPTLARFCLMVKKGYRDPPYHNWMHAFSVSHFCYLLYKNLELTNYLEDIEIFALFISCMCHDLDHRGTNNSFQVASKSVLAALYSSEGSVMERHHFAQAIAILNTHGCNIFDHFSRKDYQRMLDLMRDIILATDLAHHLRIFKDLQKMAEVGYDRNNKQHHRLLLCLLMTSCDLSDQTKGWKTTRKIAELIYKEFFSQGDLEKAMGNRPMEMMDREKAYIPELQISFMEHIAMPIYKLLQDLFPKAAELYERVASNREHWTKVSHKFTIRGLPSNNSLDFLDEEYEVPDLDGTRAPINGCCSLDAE
Description: as §1

PDE4D2 (86–413) = molecular target: T6, PDE4D2 (86–413) (Homo sapiens, UniProt Q08499); test: PDE activity assay, PDE4D2 catalytic domain; type: biochemical
T6 construct: PDE4D2 (86–413)
T6 sequence (Q08499 388-715): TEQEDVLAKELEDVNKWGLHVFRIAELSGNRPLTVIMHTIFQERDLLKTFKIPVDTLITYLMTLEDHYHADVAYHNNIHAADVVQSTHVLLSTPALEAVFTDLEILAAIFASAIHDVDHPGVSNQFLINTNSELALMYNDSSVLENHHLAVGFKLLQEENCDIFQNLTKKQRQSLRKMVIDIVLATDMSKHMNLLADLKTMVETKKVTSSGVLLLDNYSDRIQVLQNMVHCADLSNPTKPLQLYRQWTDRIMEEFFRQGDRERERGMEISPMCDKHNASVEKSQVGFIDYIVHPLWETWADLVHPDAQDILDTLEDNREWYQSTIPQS
Description: as §1

[4] = Lipid-water distribution coefficient, shake-flask 1-octanol/water; type: physicochemical; details: 1-octanol/water (1:1), means of at least three independent tests
PDE10A2 (448–789) = molecular target: T7, PDE10A2 (448–789) (Homo sapiens, UniProt Q9Y233); test: PDE activity assay, PDE10A2 catalytic domain; type: biochemical
T7 construct: PDE10A2 (448–789)
T7 sequence (Q9Y233 714-1055): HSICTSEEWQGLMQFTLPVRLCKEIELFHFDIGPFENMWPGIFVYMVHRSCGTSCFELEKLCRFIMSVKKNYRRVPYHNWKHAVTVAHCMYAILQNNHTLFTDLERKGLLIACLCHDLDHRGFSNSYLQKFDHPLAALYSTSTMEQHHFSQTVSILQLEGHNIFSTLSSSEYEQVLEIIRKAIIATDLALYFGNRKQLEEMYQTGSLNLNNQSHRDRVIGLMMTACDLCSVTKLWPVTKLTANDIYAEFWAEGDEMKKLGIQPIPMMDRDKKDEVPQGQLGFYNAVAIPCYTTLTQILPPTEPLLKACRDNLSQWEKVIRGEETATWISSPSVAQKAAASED
Description: as §1

PDE7A1 (130–482) = molecular target: T8, PDE7A1 (130–482) (Homo sapiens, UniProt Q13946); test: PDE activity assay, PDE7A1 catalytic domain; type: biochemical
T8 construct: PDE7A1 (130–482)
T8 sequence (Q13946 130-482): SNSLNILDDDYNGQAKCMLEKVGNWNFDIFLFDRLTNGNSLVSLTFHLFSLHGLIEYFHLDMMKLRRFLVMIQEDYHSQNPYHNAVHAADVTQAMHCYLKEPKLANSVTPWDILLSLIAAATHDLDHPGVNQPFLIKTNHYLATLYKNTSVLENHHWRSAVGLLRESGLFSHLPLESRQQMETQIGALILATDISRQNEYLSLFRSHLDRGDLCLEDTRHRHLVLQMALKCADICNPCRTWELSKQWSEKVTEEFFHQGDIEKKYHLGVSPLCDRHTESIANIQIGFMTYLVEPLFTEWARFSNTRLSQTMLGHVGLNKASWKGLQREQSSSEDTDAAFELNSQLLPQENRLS
Description: as §1

[5] = Oxygen Radical Absorbance Capacity (ORAC-FL) assay; details: Trolox as standard
Description: The assays were performed in 75 mM PBS (pH 7.4) and all the tested compounds were dissolved in DMSO and diluted with the PBS. Trolox was used as a standard (1–10 μM final concentration). The tested compounds at different concentrations (20 μL, final concentration: 2 μM) and fluorescein (FL, 120 μL, final concentration: 300 nM) were placed in the wells of a black 96-well plate. The mixture was incubated for 10 min at 37 °C and then, APPH solution (60 μL, final concentration: 12 mM diluted by 75 mM PBS) was added rapidly. […] A blank (FL + AAPH), with PBS replacing the compounds and Trolox was used for calibration in each assay. The compounds were tested at different concentrations (0.5–10 μM). The experiments were performed in three independent runs for each sample. The fluorescence measurements were normalized to that of the blank (without antioxidant). The area under the fluorescence decay curve (AUC) was calculated using the following equation (eq. 2):
where f0 is the fluorescence reading at 0 min and fi is the fluorescence reading at time i. The net AUC was calculated by the expression AUCsample − AUCblank. Regression equations between net AUC and Trolox concentrations were calculated. The final results were expressed in μM of Trolox equivalent/μM of pure compounds.

[6] = Metal-chelating capacity by UV-vis spectrophotometry; type: physicochemical; details: 30% (v/v) ethanol/buffer, pH 7.4
Description: The experiments were performed according to previously reported methods. The metal chelation was monitored spectrophotometrically using a UV–vis spectrophotometer. […].

PDE8A1 (480–820) = molecular target: T9, PDE8A1 (480–820) (Homo sapiens, UniProt O60658); test: PDE activity assay, PDE8A1 catalytic domain; type: biochemical
T9 construct: PDE8A1 (480–820)
T9 sequence (O60658 480-820): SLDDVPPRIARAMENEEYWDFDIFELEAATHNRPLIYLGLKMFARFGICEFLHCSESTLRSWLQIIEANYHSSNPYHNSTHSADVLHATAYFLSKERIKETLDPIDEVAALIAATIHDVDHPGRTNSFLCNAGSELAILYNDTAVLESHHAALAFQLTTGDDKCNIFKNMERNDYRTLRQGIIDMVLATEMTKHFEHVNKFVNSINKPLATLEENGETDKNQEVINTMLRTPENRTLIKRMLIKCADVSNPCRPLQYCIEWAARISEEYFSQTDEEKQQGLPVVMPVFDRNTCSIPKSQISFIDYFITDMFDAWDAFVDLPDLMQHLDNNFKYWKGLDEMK
Description: as §1

[7] = PAMPA-BBB in vitro blood-brain barrier permeation assay; type: in vitro ADME
Description: The blood–brain barrier penetration capacity of the compounds was evaluated by using the parallel artificial membrane permeation assay (PAMPA). […] The porcine brain lipid (PBL) was obtained from Avanti Polar Lipids. The donor microplate (PVDF membrane, pore size of 0.45 nm) and the acceptor microplate were from Millipore. The acceptor 96-well microplate (COSTAR) was filled with 300 μL of a PBS/EtOH mixture (7:3) and the filter membrane was impregnated with 4 μL of PBL in dodecane (20 mg/mL). The compounds were dissolved in DMSO at a concentration of 5 mg/mL and diluted with the PBS/EtOH mixture (7:3) to a concentration of 100 μg /mL. Then, 200 μL of this solution was added to the donor wells and the wells were carefully placed on the acceptor plate, which was then incubated for 10 h at 25 °C in a vibrationless environment. After the incubation, the donor plate was removed and the concentration of compounds in the acceptor wells was determined with a UV plate reader (Flexstation 3). Each sample was analyzed at five wavelengths in four wells, and at least three independent runs were performed. The results are expressed as the mean ± standard deviation. In these experiments, 13 quality control standards of known BBB permeability were included to validate the analysis set.
where Vd is the volume in the donor well, Va is the volume in acceptor well, A is the filter area, t is the permeation time, [drug]acceptor is the absorbance of the compound in the acceptor well, and [drug]equilibrium is the theoretical equilibrium absorbance.

Structure (SMILES): COc1ccc(CN[C@H](C)c2nc3c(cnn3C3CCCC3)c(=O)[nH]2)c(O)c1 [Compound 16]
- copper redox cycling, OH· production (7-hydroxyl-CCA fluorescence) [1]: fully inhibited
- disaggregation of Cu^2+-induced Aβ1-42 fibrils (ThT) (Aβ1-42 fibrils): 64.6%
- IC50 (PDE3A (679–1087)): > 10000 nM
- Aβ fibrils by TEM, disaggregation of preformed fibrils (Aβ1-42): drastically reduced the amount of Aβ fibrils
- Aβ fibrils by TEM, inhibition of Cu^2+-induced aggregation (Aβ1-42): fewer fibrils were observed than in the presence of CQ
- intracellular antioxidant activity (ROS, DCFH-DA) (SH-SY5Y cells [2]): superior antioxidant activity to that of Trolox
- cytotoxicity toward SH-SY5Y cells (MTT) (SH-SY5Y cells [3]): nearly no toxicity
- IC50 (PDE1B2 (10–487)): 17000 nM
- IC50 (PDE5A1 (535–860)): 1900 nM
- IC50 (PDE2A3 (580–941)): > 50000 nM
- IC50 (PDE4D2 (86–413)): 25000 nM
- logP at 30 min [4]: 1.1
- IC50 (PDE10A2 (448–789)): 6900 nM
- IC50 (PDE7A1 (130–482)): > 50000 nM
- ORAC [5]: 4.47 ± 0.10 μmol of Trolox equiv/μmol tested compound
- oxygen radical absorbance capacity, ORAC-FL value [5]: 4.47 ORAC-FL units
- chelation of Cu^2+, Fe^2+, Zn^2+ (UV-vis absorbance changes) [6]: formation of 16-Metal ion (II) complex
- chelation of Fe^3+ (UV-vis) [6]: failed to chelate Fe^3+ effectively
- IC50 (PDE8A1 (480–820)): > 50000 nM
- Papp at 10 h, 100 μg/mL ([7]; PAMPA, PBS:EtOH (70:30), mean ± SD of three independent experiments, read-out: Permeability): 17 ×10⁻⁶ cm/s
- prediction of penetration into the CNS ([7]; from PAMPA-BBB Pe): CNS+ (Compounds of high BBB permeation (CNS+) Pe > 4.7)
